In paper PMC9166766 (Experimental & Molecular Medicine, 2022):

Assays:
[1] = tested on: Jurkat T cells (PMA and ionomycin-induced gene expression); experiment: mRNA sequencing of activated Jurkat T cells; format: cell-based, human; conditions: P+I 8 h
Experimental: We then extracted RNA from these cells. Construction of the cDNA library and next-generation sequencing was performed at LAS (Gimpo, Korea). We sequenced all samples on an Illumina NextSeq 500 system with 75 paired-end reads. For the RNA sequencing analysis, reads for each sample were aligned to the human genome (GRCh37/hg19 genome assembly) using STAR 2.4.0.1[25] with default settings. We used HOMER tools to quantify and normalize the defined genes in RefSeq transcripts. FPKM normalized genes were hierarchically clustered using Cluster3.0[26]. We visualized refined data with Java Treeview (http://jtreeview.sourceforge.net). We conducted gene ontology analysis of each cluster using the DAVID web tool (https://david.ncifcrf.gov). Finally, we visualized the expression levels of target genes using the Integrative Genomics Viewer (http://software.broadinstitute.org/software/igv). The raw data were submitted to the NCBI Gene Expression Omnibus under accession number GSE185561.
Fig. 3 The CABIN1 peptide inhibits T-cell activation. a Heatmap of altered genes affected by FK506 treatment or CABIN1 peptide expression upon T-cell activation. b Gene Ontology analysis of cluster III. c mRNA expression levels of genes included in cluster III. d qRT-PCR data of genes in c. The experiment was independently repeated at least three times, and the data are presented as the mean ± standard deviation. Statistical differences were determined using two-tailed Student’s t-test. *p < 0.05, **p < 0.01, ***p < 0.001, NC negative control.

[2] = tested on: Jurkat T cells (T-cell activation gene mRNA); experiment: Real-time quantitative PCR of activated Jurkat T cells; format: cell-based; conditions: PMA and ionomycin, Supplementary Fig. 5a, b
Text: We collected Jurkat T cells with QIAzol Lysis Reagent (Qiagen) to extract total RNA. We reverse transcribed cDNAs from isolated RNA using AMV Reverse Transcriptase and random hexamers. We performed real-time quantitative PCR for each cDNA using TB Green® Premix Ex Taq™ (TaKaRa, Kusatsu, Japan) on a CFX Connect Real-time PCR Detection System (Bio-Rad, Hercules, CA, USA) and normalized the expression to that of 18 S rRNA or GAPDH.

C=CC[C@@H]1/C=C(\C)C[C@H](C)C[C@H](OC)[C@H]2O[C@@](O)(C(=O)C(=O)N3CCCC[C@H]3C(=O)O[C@H](/C(C)=C/[C@@H]3CC[C@@H](O)[C@H](OC)C3)[C@H](C)[C@@H](O)CC1=O)[C@H](C)C[C@@H]2OC [FK506, reference compound]
LOC729603 expression ([1]; NC 1.468, NC_P+I 5.071): 2.179 FPKM | PDGFA expression ([1]; NC 1.497, NC_P+I 26.809): 3.25 FPKM | PHACTR2 expression ([1]; NC 1.659, NC_P+I 9.467): 2.927 FPKM | CABP1 expression ([1]; NC 1.702, NC_P+I 5.834): 1.201 FPKM | POU2AF1 expression ([1]; NC 1.84, NC_P+I 36.298): 2.274 FPKM | SPRY1 expression ([1]; NC 2.079, NC_P+I 12.391): 4.074 FPKM | GFOD1 expression ([1]; NC 2.283, NC_P+I 12.861): 4.187 FPKM | DSTYK expression ([1]; NC 2.356, NC_P+I 7.198): 3.501 FPKM | FMNL2 expression ([1]; NC 2.395, NC_P+I 6.813): 2.726 FPKM | ADORA2A expression ([1]; NC 2.492, NC_P+I 11.633): 0.998 FPKM | CD27 expression ([1]; NC 2.525, NC_P+I 27.462): 3.098 FPKM | TNFRSF4 expression ([1]; NC 2.597, NC_P+I 31.683): 2.933 FPKM | REL expression ([1]; NC 2.654, NC_P+I 20.219): 4.749 FPKM | JAK2 expression ([1]; NC 2.788, NC_P+I 26.566): 5.248 FPKM | LRRC8B expression ([1]; NC 2.89, NC_P+I 28.699): 3.555 FPKM | NPDC1 expression ([1]; NC 3.008, NC_P+I 8.759): 4.328 FPKM | CD27-AS1 expression ([1]; NC 3.088, NC_P+I 14.958): 5.11 FPKM | CST7 expression ([1]; NC 3.315, NC_P+I 14.15): 2.338 FPKM | TAGAP expression ([1]; NC 3.351, NC_P+I 128.498): 4.352 FPKM | CD55 expression ([1]; NC 3.587, NC_P+I 39.451): 6.015 FPKM | GTDC1 expression ([1]; NC 3.595, NC_P+I 10.378): 4.629 FPKM | KCNK5 expression ([1]; NC 3.84, NC_P+I 14.865): 3.906 FPKM | MYO1D expression ([1]; NC 4.114, NC_P+I 11.118): 4.59 FPKM | RDH10 expression ([1]; NC 4.125, NC_P+I 19.889): 5.856 FPKM | COL27A1 expression ([1]; NC 4.149, NC_P+I 17.216): 4.463 FPKM | PLK3 expression ([1]; NC 4.432, NC_P+I 14.807): 5.257 FPKM | NFATC1 expression ([1]; NC 4.511, NC_P+I 15.287): 3.793 FPKM | ASAP1 expression ([1]; NC 4.678, NC_P+I 18.37): 7.765 FPKM | GRK5 expression ([1]; NC 5.451, NC_P+I 21.464): 8.481 FPKM | CCDC64 expression ([1]; NC 5.477, NC_P+I 33.545): 10.044 FPKM | ATG14 expression ([1]; NC 5.727, NC_P+I 30.239): 7.863 FPKM | PELI1 expression ([1]; NC 5.755, NC_P+I 16.085): 8.175 FPKM | ARHGEF3 expression ([1]; NC 6.146, NC_P+I 31.337): 8.637 FPKM | PKIA expression ([1]; NC 6.444, NC_P+I 49.019): 13.962 FPKM | LTBP4 expression ([1]; NC 7.304, NC_P+I 33.466): 8.427 FPKM | LAMP3 expression ([1]; NC 8.064, NC_P+I 31.61): 6.412 FPKM | LAX1 expression ([1]; NC 8.344, NC_P+I 24): 8.052 FPKM | PTPN22 expression ([1]; NC 8.928, NC_P+I 45.38): 6.37 FPKM | VAMP1 expression ([1]; NC 9.566, NC_P+I 50.97): 14.793 FPKM | NINJ1 expression ([1]; NC 10.319, NC_P+I 76.622): 11.769 FPKM | KCNK1 expression ([1]; NC 10.828, NC_P+I 36.893): 10.967 FPKM | CD97 expression ([1]; NC 10.97, NC_P+I 49.481): 19.394 FPKM | FBXO34 expression ([1]; NC 11.735, NC_P+I 48.015): 14.612 FPKM | TBC1D20 expression ([1]; NC 11.844, NC_P+I 35.808): 17.7 FPKM | MIR6775 expression ([1]; NC 12.409, NC_P+I 50.527): 19.643 FPKM | AGK expression ([1]; NC 14.395, NC_P+I 39.056): 14.029 FPKM | FYN expression ([1]; NC 14.671, NC_P+I 58.084): 16.523 FPKM | MIR6821 expression ([1]; NC 17.553, NC_P+I 62.894): 13.626 FPKM | NDFIP1 expression ([1]; NC 19.638, NC_P+I 54.615): 22.485 FPKM | TBC1D4 expression ([1]; NC 20.739, NC_P+I 73.749): 12.549 FPKM | MAP2K3 expression ([1]; NC 21.676, NC_P+I 144.057): 41.815 FPKM | PTPN6 expression ([1]; NC 22.163, NC_P+I 77.092): 20.906 FPKM | FXYD5 expression ([1]; NC 25.643, NC_P+I 101.352): 41.346 FPKM | BCL2L1 expression ([1]; NC 31.375, NC_P+I 113.956): 39.402 FPKM | ATP6V1B2 expression ([1]; NC 33.172, NC_P+I 129.395): 50.672 FPKM | PIM3 expression ([1]; NC 37.434, NC_P+I 180.382): 42.827 FPKM | PPIF expression ([1]; NC 58.328, NC_P+I 188.301): 50.291 FPKM | NINJ1 and ZP4 expression upon T-cell activation [2]: repressed
